Data from patent US20260337177A1, “TEAD CORE INHIBITORS FOR CANCER THERAPEUTICS” (University of Florida Research Foundation, Incorporated, priority 2023, published 2026).

What was measured:
CTGF and CYR61 = CTGF and CYR61 expression in xenograft tumor tissue (western blotting); type: in vivo; details: vs vehicle groups
From the text: To elucidate the mechanism of compound 22-mediated antitumor activity in vivo, the expression level of CTGF and CYR61 in the tumor tissue were examined by western blotting.

HepG2 cells = test: Apoptosis by Annexin V/PI flow cytometry, HepG2; type: cell-based, human; details: 10 μM; 48 h
Description: In order to gain deeper insights into the underlying anticancer mechanism of compound 22, experiments were performed to validate whether the induction of G1 phase cells by compound 22 was linked to apoptosis. To achieve this, the cells treated with compound 22 were subjected to PI and FITC-annexin V staining to detect apoptotic cells. […] The proportions of total apoptosis including the early stage apoptosis and the later stage of apoptosis were 66.8%, and 83.5%, respectively, at concentrations of 5 and 10 μM. This trend was similarly observed in the case of HepG2 cells. […] The impact of compound 22 on inducing cell apoptosis was less pronounced in HepG2 cells compared to Huh7 cells, aligning with the outcomes of the cell cycle analysis, providing further coherence to the observed effects of compound 22 on these cell lines.
Apoptosis was detected using an Annexin V-FITC apoptosis detection kit (Thermo Fisher Scientific) following the manufacturer’ instructions. Briefly, about 50000 cells were suspended in 500 μl of binding buffer. The cells were incubated with 5 μl FITC-conjugated Annexin V for 15 minutes and incubated with 5 μl propidium Iodide staining solution for 15 minutes in darkness at room temperature. Cell apoptosis was then analyzed by flow cytometry using a FACSCalibur flow cytometer (Becton Dickinson, San Jose, CA).

CTGF = CTGF protein expression by western blotting in Huh7 cells; type: cell-based, human; details: dose-dependent
Description: Treated Huh7 cells were harvested and lysed in cold RIPA lysis buffer containing […] and phosphatase inhibitors. The protein concentrations were determined using the BCA Protein Assay kit. The prepared protein samples were loaded on and separated by 10% SDS-PAGE gel and then were transferred to PVDF membrane. Blots were blocked for 1 h at RT in blocking buffer and incubated with corresponding primary antibodies: anti-CTGF (ab227180), and anti-GAPDH (ab9485), at 4 ° C overnight. Then the blots were incubated with HRP-conjugated anti-rabbit secondary antibody in blocking buffer for 1.5 h at RT. The membranes were imaged with ChemiDoc MP imaging system.

TAZ-TEAD = test: Co-immunoprecipitation of endogenous TAZ and TEAD in NCI-H226 cells; type: cell-based; details: 1 μM, 24 hours
Description: To assess if compound 22 inhibits the interaction between YAP/TAZ and TEAD proteins within the cell, compound 22 was administered to NF2-deficient NCI-H226 cells for 24 hours. Subsequently, the endogenous TEAD protein was isolated through immunoprecipitation using a pan-TEAD antibody and examined the immunocomplexes for the presence of YAP/TAZ proteins using anti-YAP/TAZ antibodies (as depicted in FIG. 18).
[…] protein lysate extracted using lysis buffer were incubated with 5 μL pan-TEAD antibody (CST #13295, 33 g/ml) at 4 ° C overnight with rotation, and then incubated with 15 μL Protein G magnetic beads (Fisher #88847) at R.T. for 1 hour with rotation. After binding, beads were washed three times with lysis buffer and one time with ddH2O. IP samples were eluted using 1× gel loading buffer supplied with 20 mM DTT and boiled at 96 ° C for 10 min. […] protein lysate were used for input, and 3% IP flow-thru were used for binding efficiency control. *0 indicated DMSO control. For the detection process, primary antibodies used were: YAP/TAZ rabbit monoclonal antibody (mAb) at a dilution of 1:2000, CST #8418S; Pan-TEAD rabbit mAb at 1:2000, CST #13295S; and 3-actin mouse mAb at 1:8000, Sigma #A5316. Secondary antibodies applied in 1× TBST were: Rabbit IgG-HRP at 1:10000 and Mouse IgG-HRP also at 1:10000.

TEADs = test: TEAD-specific 8×GTIIC-luciferase reporter assay; type: cell-based
Description: A series of compounds featuring a chloromethyl ketone moiety were synthesized (Schemes 1-4). The inhibitory rate of this series of compounds was tested using 8×GTIIC-luciferase reporter assay at 10 μM.
Next, the inhibition of TEAD transcription activity of compounds was tested varying the dosage using the 8×GTIIC-luciferase reporter assay. […] The aim was to determine whether its inhibition of TEAD transcription can lead to downregulation of the YAP-TEAD target genes. CTGF is one of the best characterized (bona fide) target gene of YAP and TAZ.
To further investigate the mechanism of the inhibitory effect of compounds in Huh7 cells, TEADs specific luciferase reporter assays were performed with compounds 22 and 12 at several concentrations. […] TEAD downstream gene expression patterns were evaluated in liver cancer cells Huh7, which has been evidenced with relative high expression of YAP and TEAD2.
HEK 293T cells were plated at 2×10^4 cells/well in a 96 well microplate and were transfected with 50 ng of 8×GTIIC-luciferase plasmid (Addgene #34615) and 0.5 ng of pRL-CMV (Promega #E226A) by using lipofectamine 3000 (Life Technologies #L3000). The 8×GTIIc-luciferase reporter is a Yap/Taz-activity reporter containing eight TEAD consensus binding sequences. After 6 h, transfected cells were treated with various concentrations of compounds or DMSO control. Luciferase signals were measured using the Dual Luciferase Reporter Assay System (Promega, E1960) according to the manufacturer's instructions. Experiments were performed in triplicate and repeated at least three times.

Huh7 cells = test: Cell cycle analysis by flow cytometry, Huh7; type: cell-based, human; details: 5 and 10 μM, 48 hours
Description: To study the potential mechanistic pathways responsible for cell proliferation inhibition by compound 22, the change of cell cycle in Huh7 and HepG2 liver cancer cell lines was evaluated. DNA-based cell cycle analysis was performed using flow cytometry. […] To explore whether compound 22 also induces G1 phase arrest in HepG2 cells similar to its effects on Huh7 cells, parallel investigations were performed. […] However, the impact of 22 on inducing G1 phase arrest was less pronounced in HepG2 cells compared to Huh7 cells.
For cell cycle analysis, cells were fixed with pre-cold 70% ethanol for 30 minutes. Then the cells were washed with PBS and stained with propidium iodide working solution for 30 minutes in the dark. The stained cells were analyzed by flow cytometry. Cell cycle distribution was analyzed using FlowJo_V10 software. For each experiment, 20000 events per sample were recorded. Percentages of cells in G0/G1, S and G2/M phases were calculated and shown in DNA histograms.

AML12 cells = test: AML12 normal liver cell growth inhibition (CCK8); type: cell-based

## O=C(CCl)c1c[nH]c2cc(Cl)c(OCc3cccc(C(F)(F)F)c3)cc12 [Compound 22, 2-chloro-1-(6-chloro-5-((3-(trifluoromethyl)benzyl)oxy)-1H-indol-3-yl)ethan-1-one]
CTGF and CYR61
  CTGF expression in tumor tissue: remarkable decrease
  CYR61 expression in tumor tissue: remarkable decrease
HepG2 cells
  Maximum apoptotic rate (early+late apoptotic), HepG2: 69.0%
CTGF
  CTGF protein expression, Huh7: suppression of CTGF protein production
TAZ-TEAD
  Co-IP of TAZ with pan-TEAD antibody: not affecting TAZ
TEADs; 10 μM, 8×GTIIC-luciferase, read-out: Luciferase reporter assay inhibitory rate
  inhibition at 10 µM: 93.6%
TEADs; dose response, read-out: TEADs transcription inhibition IC50, luciferase reporter assay
  IC50: 2100 nM
Huh7 cells; control group 36.4%
  Percentage of cells in G1 phase, Huh7: 58.2%
Huh7 cells
  Proportion of cells in S/G2 phases, Huh7: distinct decrease
AML12 cells
  Toxicity towards normal liver cell line AML12: least toxic
AML12 cells; 10 μM, 3 days
  Inhibitory rate, AML12 (inhibitory percentage of AML12 cell growth): 22.1%
